Experimental data: patent publication US7435837B2, “Dihydrobenzofuranyl alkanamine derivatives and methods for using same” (Wyeth, priority 2003, dated 2008)
Structures can show the parent of a compound that is named as a salt.

| Structure (SMILES) | melting point |
| --- | --- |
| CC(C)c1cccc2c1OC(CN)C2 (racemic) (as salt: hydrochloride) [Example 18, (±)-(7-isopropyl-2,3-dihydro-1-benzofuran-2-yl)methylamine] | 160 to 164 °C (dec.) |
| NCC1Cc2cccc(-c3cc(C(F)(F)F)cc(C(F)(F)F)c3)c2O1 (racemic) (as salt: hydrochloride) [Example 32, (±)-1-{7-[3,5-bis(trifluoromethyl)phenyl]-2,3-dihydro-1-benzofuran-2-yl}methanamine] | 174 to 175 °C (dec.) |
| NCC1Cc2cccc(-c3ccsc3)c2O1 (racemic) (as salt: hydrochloride) [Example 44, (±)-1-(7-thien-3-yl-2,3-dihydro-1-benzofuran-2-yl)methanamine] | > 200 °C |
| NCC1Cc2c(F)c(F)cc(-c3ccccc3)c2O1 (racemic) (as salt: hydrochloride) [Example 109, (±)-(4,5-difluoro-7-phenyl-2,3-dihydro-1-benzofuran-2-yl)methylamine] | > 240 °C |
| NCC1Cc2cc(Cl)cc(-c3ccsc3)c2O1 (single isomer, unassigned; (-)) (as salt: hydrobromid) [Example 91, (−)-(5-chloro-7-thien-3-yl-2,3-dihydro-1-benzofuran-2-yl)methylamine] | 277 to 280 °C |
| CC(C)(C)c1cccc2c1OC(CN)C2 (single isomer, unassigned; (+)) (as salt: hydrochloride) [Example 26, (+)-1-(7-tert-butyl-2,3-dihydro-1-benzofuran-2-yl)methanamine] | 177 to 179 °C |
| NCC1Cc2cc(F)cc(-c3ccccc3C(F)(F)F)c2O1 (single isomer, unassigned; (-)) (as salt: hydrochloride) [Example 151, (−)-1-{5-fluoro-7-[2-(trifluoromethyl)phenyl]-2,3-dihydro-1-benzofuran-2-yl}methanamine] | 183 to 188 °C |
| NCC1Cc2cccc(-c3c(Cl)cc(Cl)cc3Cl)c2O1 (racemic) (as salt: hydrochloride) [Example 166, (±)-{[7-(2,4,6-trichlorophenyl)-2,3-dihydro-1-benzofuran-2-yl]methyl}amine] | > 225 °C |
| Cc1ccccc1-c1cc(F)c(F)c2c1OC(CN)C2 (racemic) (as salt: hydrochloride) [Example 110, (±)-1-[4,5-difluoro-7-(2-methylphenyl)-2,3-dihydro-1-benzofuran-2-yl]methanamine] | > 224 °C |
| NCC1Cc2c(cccc2-c2ccccc2)O1 (racemic) (as salt: hydrochloride) [Example 1, (±)-1-(4-phenyl-2,3-dihydro-1-benzofuran-2-yl)methanamine] | 229 to 230 °C |
| NCC1Cc2cc(Cl)cc(-c3cccc(Cl)c3)c2O1 (racemic) (as salt: hydrochloride) [Example 89, (±)-1-[5-chloro-7-(3-chlorophenyl)-2,3-dihydro-1-benzofuran-2-yl]methanamine] | 195 °C (dec.) |
| CCNCC1Cc2cccc(-c3c(Cl)cccc3Cl)c2O1 (racemic) (as salt: hydrochloride) [Example 390, (±)-N-{[7-(2,6-dichlorophenyl)-2,3-dihydro-1-benzofuran-2-yl]methyl}ethanamine] | 195 to 197 °C |
| Cc1cccc(C)c1-c1cccc2c1CC(CN)O2 (single isomer, unassigned; (+)) (as salt: hydrochloride) [Example 126, (+)-1-[4-(2,6-dimethylphenyl)-2,3-dihydro-1-benzofuran-2-yl]methanamine] | > 250 °C |
| NCC1Cc2c(cccc2-c2ccccc2C(F)(F)F)O1 (single isomer, unassigned; (-)) (as salt: hydrochloride) [Example 123, (−)-1-{4-[2-(trifluoromethyl)phenyl]-2,3-dihydro-1-benzofuran-2-yl}methanamine] | 203 to 206 °C |
| Cc1c(Cl)cc(C(C)C)c2c1CC(CN)O2 (racemic) (as salt: hydrochloride) [Example 21, (±)-1-(5-chloro-7-isopropyl-4-methyl-2,3-dihydro-1-benzofuran-2-yl)methanamine] | > 225 °C (dec.) |
| CC(C)(C)/C=C/c1cccc2c1OC(CN)C2 (racemic) (as salt: hydrochloride) [Example 117, (±)-1-{7-[(1E)-3,3-dimethylbut-1-enyl]-2,3-dihydro-1-benzofuran-2-yl}methanamine] | 216 to 218 °C |
| Cc1ccccc1-c1c(Cl)ccc2c1OC(CN)C2 (racemic) (as salt: hydrochloride) [Example 399, (±)-{[6-chloro-7-(2-methylphenyl)-2,3-dihydro-1-benzofuran-2-yl]methyl}amine] | 204 to 206 °C |
| NCC1Cc2c(cccc2-c2ccccc2)O1 (single isomer, unassigned; (-)) (as salt: hydrobromid) [Example 3, (−)-1-(4-phenyl-2,3-dihydro-1-benzofuran-2-yl)methanamine] | 227 to 228 °C |

The next lines start with the values.

| melting point | Structure (SMILES) |
| --- | --- |
| > 250 °C | Cc1ccc(-c2cccc3c2OC(CN)C3)cc1 (single isomer, unassigned; (+)) (as salt: hydrobromid) [Example 71, (+)-1-[7-(4-methylphenyl)-2,3-dihydro-1-benzofuran-2-yl]methanamine] |
| 205 to 206 °C | CC(C)c1ccccc1-c1cccc2c1OC(CN)C2 (single isomer, unassigned; (+)) (as salt: hydrochloride) [Example 62, (+)-[7-(2-isopropylphenyl)-2,3-dihydro-1-benzofuran-2-yl]methylamine] |
| 231 to 233 °C | Cc1ccccc1-c1cccc2c1CC(CN)O2 (single isomer, unassigned; (-)) (as salt: hydrobromid) [Example 6, (−)-1-[4-(2-methylphenyl)-2,3-dihydro-1-benzofuran-2-yl]methanamine] |
| 128 to 131 °C | NCC1Cc2cccc(Cc3ccccc3)c2O1 (single isomer, unassigned; (+)) (as salt: hydrochloride) [Example 16, (+)-1-(7-benzyl-2,3-dihydro-1-benzofuran-2-yl)methanamine] |
| 227 to 230 °C | Cc1ccccc1-c1cc(F)cc2c1OC(CN)C2 (single isomer, unassigned; (+)) (as salt: hydrochloride) [Example 105, (+)-1-[5-fluoro-7-(2-methylphenyl)-2,3-dihydro-1-benzofuran-2-yl]methanamine] |
| 198 to 200 °C | NCC1Cc2cccc(-c3ccc(Cl)cc3Cl)c2O1 (racemic) (as salt: hydrochloride) [Example 83, (±)-1-[7-(2,4-dichlorophenyl)-2,3-dihydro-1-benzofuran-2-yl]methanamine] |
| 244 to 246 °C | NCC1Cc2cccc(-c3ccccc3F)c2O1 (racemic) (as salt: hydrochloride) [Example 50, (±)-1-[7-(2-fluorophenyl)-2,3-dihydro-1-benzofuran-2-yl]methanamine] |
| 234 to 236 °C | NCC1Cc2cccc(-c3ccsc3)c2O1 (single isomer, unassigned; (+)) (as salt: hydrobromid) [Example 45, (+)-1-(7-thien-3-yl-2,3-dihydro-1-benzofuran-2-yl)methanamine] |
